The test is described as follows: Antagonist activity at CXCR2 expressed in CHO cells assessed as inhibition of IL-8-induced chemotaxis.
Broadly, the IC50 is the concentration that inhibits the measured activity by half. `CCN(CC)Nc1c(Nc2cccc(C(=O)N(C)C)c2O)c(=O)c1=O` [3-(2-(2,2-diethylhydrazinyl)-3,4-dioxocyclobut-1-enylamino)-2-hydroxy-N,N-dimethylbenzamide]: the half-maximal inhibitory concentration (IC50) turned out to be 46 nM.

Regarding `CCN(Nc1c(Nc2cccc(C(=O)N(C)C)c2O)c(=O)c1=O)C(C)=O` [3-(2-(2-acetyl-2-ethylhydrazinyl)-3,4-dioxocyclobut-1-enylamino)-2-hydroxy-N,N-dimethylbenzamide], the IC50 was determined as 1250 nM.

`CCN(Nc1c(Nc2cccc(C(=O)N(C)C)c2O)c(=O)c1=O)C(=O)c1ccc(F)cc1` [3-(2-(2-ethyl-2-(4-fluorobenzoyl)hydrazinyl)-3,4-dioxocyclobut-1-enylamino)-2-hydroxy-N,N-dimethylbenzamide]: the IC50 stood at 840 nM.

As for `CCN(Cc1ccc(F)cc1)Nc1c(Nc2cccc(C(=O)N(C)C)c2O)c(=O)c1=O` [3-(2-(2-ethyl-2-(4-fluorobenzyl)hydrazinyl)-3,4-dioxocyclobut-1-enylamino)-2-hydroxy-N,N-dimethylbenzamide], the IC50 is 6340 nM.

With `CCN(Nc1c(Nc2cccc(C(=O)N(C)C)c2O)c(=O)c1=O)c1ccc(F)cc1` [3-(2-(2-ethyl-2-(4-fluorophenyl)hydrazinyl)-3,4-dioxocyclobut-1-enylamino)-2-hydroxy-N,N-dimethylbenzamide], the IC50 worked out at 840 nM.

Regarding `CCN(Nc1c(Nc2cccc(C(=O)N(C)C)c2O)c(=O)c1=O)c1ccc(OC)cc1` [3-(2-(2-ethyl-2-(4-methoxyphenyl)hydrazinyl)-3,4-dioxocyclobut-1-enylamino)-2-hydroxy-N,N-dimethylbenzamide], the concentration for half-maximal inhibition (IC50) was determined as 100 nM.

Turning to `CCN(Nc1c(Nc2cccc(C(=O)N(C)C)c2O)c(=O)c1=O)c1ccccn1` [3-(2-(2-ethyl-2-(pyridin-2-yl)hydrazinyl)-3,4-dioxocyclobut-1-enylamino)-2-hydroxy-N,N-dimethylbenzamide], the IC50 was 75 nM.

Consider `CCN(Nc1c(Nc2cccc(C(=O)N(C)C)c2O)c(=O)c1=O)c1ccccc1` [3-(2-(2-ethyl-2-phenylhydrazinyl)-3,4-dioxocyclobut-1-enylamino)-2-hydroxy-N,N-dimethylbenzamide], for which the IC50 is 54 nM.

Values taken from BindingDB's records for doi:10.1016/j.bmcl.2009.08.014 (Wuxi Pharmatech, 2009).
